pIC50: −log10 of the molar value.

The target of this assay is T1, Genome polyprotein [2420-3010] (HCV, UniProt P26663).
T1 construct: 2420-3010
T1 sequence (P26663 2420-3010): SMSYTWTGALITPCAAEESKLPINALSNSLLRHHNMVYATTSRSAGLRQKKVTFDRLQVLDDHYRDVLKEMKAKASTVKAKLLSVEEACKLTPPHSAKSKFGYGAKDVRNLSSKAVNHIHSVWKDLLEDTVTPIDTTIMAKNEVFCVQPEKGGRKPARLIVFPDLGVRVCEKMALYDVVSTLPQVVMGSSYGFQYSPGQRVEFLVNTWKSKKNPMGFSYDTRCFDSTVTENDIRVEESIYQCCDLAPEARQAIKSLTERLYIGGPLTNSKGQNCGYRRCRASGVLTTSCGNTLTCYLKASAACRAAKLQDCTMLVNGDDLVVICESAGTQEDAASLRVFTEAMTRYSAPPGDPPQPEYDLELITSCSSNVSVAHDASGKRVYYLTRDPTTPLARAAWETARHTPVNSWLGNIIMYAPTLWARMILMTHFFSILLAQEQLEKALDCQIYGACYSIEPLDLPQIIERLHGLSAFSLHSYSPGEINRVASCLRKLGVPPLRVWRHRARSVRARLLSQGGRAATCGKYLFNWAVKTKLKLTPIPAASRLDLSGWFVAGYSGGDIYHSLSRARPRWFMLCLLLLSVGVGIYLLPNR
The assay can be described thus: Inhibition Assay. Conditions: pH 7.3; 25 °C.
Procedure: To measure inhibition of the enzymatic activity of the HCV NS5B RNA-dependent RNA polymerase by the nucleoside triphosphate compounds of the present invention, a radiolabeled nucleotide incorporation assay was used. […] The assay was then terminated by the addition of 500 mM EDTA (50 μL). The reaction mixture was transferred to a Millipore DE81 filter plate and the incorporation of labeled CTP is determined using Packard TopCount.
`C[C@@]1(N)[C@H](O)[C@@H](COP(=O)(O)OP(=O)(O)OP(=O)(O)O)O[C@H]1c1cnn2c(N)ncnc12` [US9457039, 25] showed a pIC50 of 4.29. The molecule `C[C@@]1(N=[N+]=[N-])[C@H](O)[C@@H](COP(=O)(O)OP(=O)(O)OP(=O)(O)O)O[C@H]1c1cnc2c(N)ncnn12` [US9457039, 22] gave a pIC50 of 6.03. With `C[C@@]1(N)[C@H](O)[C@@H](COP(=O)(O)OP(=O)(O)OP(=O)(O)O)O[C@H]1c1ccc2c(N)ncnn12` [US9457039, 24], the pIC50 was 5.96. Next, `C[C@@]1(N)[C@H](O)[C@@H](COP(=O)(O)OP(=O)(O)OP(=O)(O)O)O[C@H]1c1cnc2c(N)ncnn12` [US9457039, 23]: 5.17.

The term pIC50 denotes −log10 of the IC50, conventionally taken in molar units. Lower therefore signals a large IC50.

(Values after BindingDB's records for patent US9457039 (Merck Sharp & Dohme Corp, 2016).)
